Columns and labels:
PKR R510Q = PKR R510Q (Homo sapiens, UniProt P30613, R510Q); assay: PKR mutant assay, PKR R510Q AC50; assay type: biochemical; details: mutant PKR R510Q enzyme
Description: (§1) • PKR or PKR mutant enzyme solution was diluted in assay buffer. • 2 μL of test compound was added into wells first, and then 180 μL reaction mix was added. • Reactions mixture with test compound was assembled except for ADP, and plates were stored for 60 minutes at room temperature. • 20 uL ADP was added to start reaction at room temperature and reaction progress was measured as changes in absorbance at 340 nm wavelength at room temperature.
Test Compound Preparation: • Test compound stock was made at 100x concentration in 100% DMSO (10 mM) • 1 to 3 dilutions were made for 11 points (i.e. 50 μl of first concentration added to 100 μl 100% DMSO to yield 3.33 mM, 50 μl of this added to 100 μl DMSO to yield 1.11 mM, and so forth) • 1 to 100 dilution into assay (2 μl in 200 μl) yielded starting concentration of 100 μM, decreasing 3 fold for 11 points • Assay Buffer: 100 mM KCl, 50 mM Tris 7.5, 5 mM MgCl2, 1 mM DTT, 0.03% BSA • Reaction Mixture: PKR mutant enzyme: 80-400 ng/well; ADP: 0.22-1.65 mM; PEP: 0.1-0.5 mM; NADH:180 uM; LDH: 0.5 units (Sigma#59023); DTT: 1 mM; BSA: 0.03%. […]

PKR R532W = PKR R532W (Homo sapiens, UniProt P30613, R532W); assay: PKR mutant assay, PKR R532W AC50; assay type: biochemical; details: mutant PKR R532W enzyme
Chain of PKR R532W (P30613 whole entry R532W): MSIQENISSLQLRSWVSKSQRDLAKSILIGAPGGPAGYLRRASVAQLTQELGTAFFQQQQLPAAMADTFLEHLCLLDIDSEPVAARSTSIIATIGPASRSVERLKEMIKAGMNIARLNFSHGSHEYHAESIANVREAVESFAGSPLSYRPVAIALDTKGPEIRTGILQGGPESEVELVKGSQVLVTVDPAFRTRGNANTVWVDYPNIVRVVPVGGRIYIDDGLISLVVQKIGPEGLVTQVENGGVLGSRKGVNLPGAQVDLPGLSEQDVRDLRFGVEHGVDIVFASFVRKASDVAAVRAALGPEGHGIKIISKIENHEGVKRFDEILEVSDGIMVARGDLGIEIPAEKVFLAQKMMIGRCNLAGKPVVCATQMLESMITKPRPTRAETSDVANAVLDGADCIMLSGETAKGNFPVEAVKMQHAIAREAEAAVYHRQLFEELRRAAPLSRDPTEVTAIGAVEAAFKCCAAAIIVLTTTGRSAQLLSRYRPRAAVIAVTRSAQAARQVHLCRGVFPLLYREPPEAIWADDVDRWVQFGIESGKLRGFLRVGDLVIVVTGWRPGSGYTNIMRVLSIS
Description: as §1
(§2) Test Compound Preparation: • Test compound stock was made at 100x concentration in 100% DMSO (10 mM) • 1 to 3 dilutions were made for 11 points (i.e. 50 μl of first concentration added to 100 μl 100% DMSO to yield 3.33 mM, 50 μl of this added to 100 μl DMSO to yield 1.11 mM, and so forth) • 1 to 100 dilution into assay (2 μl in 200 μl) yielded starting concentration of 100 μM, decreasing 3 fold for 11 points • Assay Buffer: 100 mM KCl, 50 mM Tris 7.5, 5 mM MgCl2, 1 mM DTT, 0.03% BSA • Reaction Mixture: PKR mutant enzyme: 80-400 ng/well; ADP: 0.22-1.65 mM; PEP: 0.1-0.5 mM; NADH:180 uM; LDH: 0.5 units (Sigma#59023); DTT: 1 mM; BSA: 0.03%.
(§3) A compound described herein was diluted with DMSO and tested at 1 μM concentration. The enzyme was diluted in 1× Buffer: (100 mM KCl, 50 mM Tris 7.5, 5 mM MgCl2, 1 mM DTT, 0.03% BSA). 2 μL of compound solution was first added into wells, and then 180 μL of enzyme solution was added. Assays were assembled except for ADP, and plates were stored for 60 minutes at RT. 20 μL ADP was added to start the assay and assay output was evaluated using OD340 at SpectraMax. The assay was run at room temperature. • Final concentration: PKR R532W (100 ng/well), Tris pH 7.5 (50 mM), KCl (100 mM), MgCl2 (5 mM), ADP (0.36 mM), PEP (0.1 mM), NADH (180 μM), LDH (0.5 units, Sigma 59023), DTT (1 mM) and BSA (0.03%).

PKR WT [1] = target: T1, PKR WT (Homo sapiens, UniProt P30613); assay: PKR WT enzymatic assay AC50; assay type: biochemical; details: wild type PKR
T1 sequence (P30613 whole entry): as the sequence (P30613 whole entry R532W) above, with W532R counted along it
Description: as §1, §2
as §3, with “wt” for “R532W”, “(0.48” for “(0.36”, “(0.15” for “(0.1”

PKR WT [2] = target: T1, PKR WT; assay: PKR WT cell based assay AC50; details: wild type PKR

Chain of PKR R510Q (P30613 whole entry R510Q): as the sequence (P30613 whole entry R532W) above, with R510Q, W532R counted along it

Row | SMILES | AC50 (PKR R510Q) | AC50 (PKR R532W) | AC50 (PKR WT [1]) | AC50 (PKR WT [2])
1 | COc1ccccc1C1(O)CN(C(=O)c2ccc(NS(=O)(=O)c3cccc4cccnc34)cc2)C1 [Compound 2, N-(4-(3-hydroxy-3-(2-methoxyphenyl)azetidine-1-carbonyl)phenyl)quinoline-8-sulfonamide] | 0.101 to 1 µM | < 0.1 µM | < 0.1 µM | 0.101 to 1 µM
2 | O=C(c1ccc(NS(=O)(=O)c2cccc3cccnc23)cc1)N1CC(O)(c2cccc(F)c2)C1 [Compound 4, N-(4-(3-(3-fluorophenyl)-3-hydroxyazetidine-1-carbonyl)phenyl)quinoline-8-sulfonamide] | 1.01 to 10 µM | 0.101 to 1 µM | 0.101 to 1 µM | < 0.1 µM
3 | O=C(c1ccc(NS(=O)(=O)c2cccc3cccnc23)cc1)N1CC(O)(c2ccccc2Cl)C1 [Compound 5, N-(4-(3-(2-chlorophenyl)-3-hydroxyazetidine-1-carbonyl)phenyl)quinoline-8-sulfonamide] | 0.101 to 1 µM | < 0.1 µM | < 0.1 µM | 0.101 to 1 µM
4 | O=C(c1ccc(NS(=O)(=O)c2cccc3cccnc23)cc1)N1CC(O)(c2ccccc2OC(F)(F)F)C1 [Compound 7, N-(4-(3-hydroxy-3-(2-(trifluoromethoxy)phenyl)azetidine-1-carbonyl)phenyl)quinoline-8-sulfonamide] | 0.101 to 1 µM | < 0.1 µM | 0.101 to 1 µM | 0.101 to 1 µM
5 | O=C(c1ccc(NS(=O)(=O)c2cccc3cccnc23)cc1)N1CC(O)(c2cccc(Cl)c2)C1 [Compound 11, N-(4-(3-(3-chlorophenyl)-3-hydroxyazetidine-1-carbonyl)phenyl)quinoline-8-sulfonamide] | 0.101 to 1 µM | < 0.1 µM | < 0.1 µM | 0.101 to 1 µM
6 | O=C(c1ccc(NS(=O)(=O)c2cccc3cccnc23)cc1)N1CC(O)(c2cccnc2C(F)(F)F)C1 [Compound 17, N-(4-(3-hydroxy-3-(2-(trifluoromethyl)pyridin-3-yl)azetidine-1-carbonyl)phenyl)quinoline-8-sulfonamide] | 0.101 to 1 µM |  | < 0.1 µM | 0.101 to 1 µM
7 | O=C(c1ccc(NS(=O)(=O)c2cccc3ncccc23)cc1)N1CC(O)(c2cccc(C(F)(F)F)c2)C1 [Compound 44, N-(4-(3-hydroxy-3-(3-(trifluoromethyl)phenyl)azetidine-1-carbonyl)phenyl)quinoline-5-sulfonamide] | 1.01 to 10 µM | 1.01 to 10 µM | 1.01 to 10 µM | 
8 | O=C(c1ccc(NS(=O)(=O)c2ccccc2Cl)cc1)N1CC(O)(Cc2ccccc2)C1 [Compound 49, N-(4-(3-benzyl-3-hydroxyazetidine-1-carbonyl)phenyl)-2-chlorobenzenesulfonamide] | > 10 µM | 1.01 to 10 µM | 1.01 to 10 µM | 
9 | O=C(c1ccc(NS(=O)(=O)c2cccc(Cl)c2Cl)cc1)N1CC(O)(Cc2ccccc2)C1 [Compound 52, N-(4-(3-benzyl-3-hydroxyazetidine-1-carbonyl)phenyl)-2,3-dichlorobenzenesulfonamide] | > 10 µM | 1.01 to 10 µM | 1.01 to 10 µM | 
10 | O=C(c1ccc(NS(=O)(=O)c2cccc3cccnc23)cc1)N1CC(O)(Cc2ccccn2)C1 [Compound 55, N-(4-(3-hydroxy-3-(pyridin-2-ylmethyl)azetidine-1-carbonyl)phenyl)quinoline-8-sulfonamide] | 1.01 to 10 µM | 0.101 to 1 µM | 0.101 to 1 µM | 
11 | O=C(c1ccc(NS(=O)(=O)c2cccc3nonc23)cc1)N1CC(O)(Cc2ccccc2)C1 [Compound 69] | > 10 µM | > 10 µM | > 10 µM | 

Continued, values first:

Row | AC50 (PKR R510Q) | AC50 (PKR R532W) | AC50 (PKR WT [1]) | AC50 (PKR WT [2]) | SMILES
12 | < 0.1 µM | < 0.1 µM | < 0.1 µM | < 0.1 µM | O=C(c1ccc(NS(=O)(=O)c2cccc3cccnc23)cc1)N1CC(O)(c2cccc(C(F)(F)F)c2)C1 [Compound 9, N-(4-(3-hydroxy-3-(3-(trifluoromethyl)phenyl)azetidine-1-carbonyl)phenyl)quinoline-8-sulfonamide]
13 | 0.101 to 1 µM | < 0.1 µM | < 0.1 µM | 0.101 to 1 µM | O=C(c1ccc(NS(=O)(=O)c2cccc3cccnc23)cc1)N1CC(O)(c2cccc(OC(F)(F)F)c2)C1 [Compound 10, N-(4-(3-hydroxy-3-(3-(trifluoromethoxy)phenyl)azetidine-1-carbonyl)phenyl)quinoline-8-sulfonamide]
14 | 0.101 to 1 µM |  | < 0.1 µM | < 0.1 µM | CCc1ccccc1C1(O)CN(C(=O)c2ccc(NS(=O)(=O)c3cccc4cccnc34)cc2)C1 [Compound 13, N-(4-(3-(2-ethylphenyl)-3-hydroxyazetidine-1-carbonyl)phenyl)quinoline-8-sulfonamide]
15 | > 10 µM | > 10 µM | > 10 µM |  | O=C(c1ccc(NS(=O)(=O)c2ccc(F)cc2F)cc1)N1CC(O)(c2cccc(C(F)(F)F)c2)C1 [Compound 42, 2,4-difluoro-N-(4-(3-hydroxy-3-(3-(trifluoromethyl)phenyl)azetidine-1-carbonyl)phenyl)benzenesulfonamide]
16 | > 10 µM | 1.01 to 10 µM | 1.01 to 10 µM |  | O=C(c1ccc(NS(=O)(=O)c2cccc3cnccc23)cc1)N1CC(O)(c2cccc(C(F)(F)F)c2)C1 [Compound 43, N-(4-(3-hydroxy-3-(3-(trifluoromethyl)phenyl)azetidine-1-carbonyl)phenyl)isoquinoline-5-sulfonamide]
17 | 1.01 to 10 µM | 0.101 to 1 µM | 0.101 to 1 µM |  | O=C(c1ccc(NS(=O)(=O)c2cccc3cccnc23)cc1F)N1CC(O)(Cc2ccccc2)C1 [Compound 45, N-(4-(3-benzyl-3-hydroxyazetidine-1-carbonyl)-3-fluorophenyl)quinoline-8-sulfonamide]
18 | 1.01 to 10 µM | 0.101 to 1 µM | 0.101 to 1 µM |  | O=C(c1ccc(NS(=O)(=O)c2cccc3cccnc23)c(F)c1)N1CC(O)(Cc2ccccc2)C1 [Compound 46, N-(4-(3-benzyl-3-hydroxyazetidine-1-carbonyl)-2-fluorophenyl)quinoline-8-sulfonamide]
19 | > 10 µM | > 10 µM | > 10 µM |  | O=C(c1ccc(NS(=O)(=O)c2ccccc2C(F)(F)F)cc1)N1CC(O)(Cc2ccccc2)C1 [Compound 51, N-(4-(3-benzyl-3-hydroxyazetidine-1-carbonyl)phenyl)-2-(trifluoromethyl)benzenesulfonamide]
20 | 1.01 to 10 µM | 0.101 to 1 µM | 0.101 to 1 µM |  | O=C(c1ccc(NS(=O)(=O)c2cccc3cccnc23)cc1)N1CC(O)(Cc2cccc(F)n2)C1 [Compound 54, N-(4-(3-((6-fluoropyridin-2-yl)methyl)-3-hydroxyazetidine-1-carbonyl)phenyl)quinoline-8-sulfonamide]
21 | > 10 µM | 0.101 to 1 µM | 1.01 to 10 µM |  | Cc1cccc(CC2(O)CN(C(=O)c3ccc(NS(=O)(=O)c4cccc5cccnc45)cc3)C2)n1 [Compound 56, N-(4-(3-hydroxy-3-((6-methylpyridin-2-yl)methyl)azetidine-1-carbonyl)phenyl)quinoline-8-sulfonamide]
22 | > 10 µM | > 10 µM | > 10 µM |  | Cn1c(=O)oc2cc(S(=O)(=O)Nc3ccc(C(=O)N4CC(O)(Cc5ccccc5)C4)cc3)ccc21 [Compound 70]

— patent US9458132B2, “Therapeutic compounds and compositions and their use as PKM2 modulators” (AGIOS PHARMACEUTICALS, INC., priority 2012, dated 2016)
